Reference: patent publication US8143241B2, “DNA damage repair inhibitors for treatment of cancer” (Kudos Pharmaceuticals Limited, priority 2003, dated 2012)

Columns and labels:
[1] = tested on: RAD51 siRNA transfected HeLa cells; experiment: Clonogenic survival, HeLa cells with RAD51 RNAi silencing; type: cell-based, human; conditions: pSUPER-CFP-17/19/23 transfected HeLa cells, constant exposure 12-14 days; read-out: SF50 (the source's name)
Text: Clonogenic survival curves of transfected HeLa cells under constant exposure to a range of concentrations of PARP inhibitor (KU0058684) for 12-14 days. […] SF50 for pSUPER-CFP-CONTROL transfected cells is >1×10^−5 M and is 1×10^−6 M for pSUPER-CFP-17/19/23 transfected cells.
HeLa cells were transfected using FuGene (Roche, USA) according to the manufacturers instructions. For clonogenic survival assays, cells were co-transfected in 6 well plates with pSUPER and a vector expressing blasticidin resistance (pEF-Bsd, Invitrogen, USA) at a ratio of 10:1 (pSUPER: pEF-Bsd). Twenty-four hours after transfection, cells were plated into replica plates and this was followed by treatment with PARP inhibitors and blasticidin 48 hours post transfection.

MCF7-3.23 cells = experiment: Clonal survival, BRCA1 silenced MCF7-3.23 cells; type: cell-based, human
Text: (§1) Log concentration of inhibitor is plotted against log surviving fraction of cells.
(§2) The MCF7 scrambled and MCF7-3.23 cell lines were generated by stable transfection of MCF7 mammary adenocarcinoma cells with gene specific pSUPER constructs. Gene specific pSUPER constructs were generated expressing the following RNAi target sequences: (i) human BRCA1 (SEQ ID NO:3) 5r-[…]-3′ (ii) scrambled control 5′-(SEQ ID NO:4) […]-3′. A 1.8 kb fragment containing the human EF1a promoter and the blasticidin resistance gene (bsd) was subcloned from pEFBsd (Invitrogen) into the SapI site of the resultant pSUPER constructs, generated pSUPER-Bsd-BRCA1 and pSUPER-Bsd-scrambled. MCF7 cells were transfected with these plasmids using FuGene6 (Roche) according to the manufacturers instructions. After selection in blasticidin, resistant clones were assessed by real time PCR for silencing of BRCA1 mRNA (Egawa et al Oncology. 2001; 61(4): 293-8; Egawa et al Int J. Cancer. 2001 Jul. 20; 95(4):255-9). Clones with reduced levels of BRCA1 mRNA were cultured (under blasticidin selection) over 8 passages and the real-time assay repeated.

wild-type ES cells = experiment: Rad51 focus formation, wild-type ES cells; type: cell-based, mouse; conditions: 48 hours
Method: (§3) ES cells were cultured for 48 h in various concentrations of PARP inhibitor fixed in 4% paraformaldehyde in PBS and permeabilised with 0.2% Triton X100 in PBS. Cells were stained with a 1:100 dilution of rabbit anti-Rad51 ployclonal antibody (Ab 551922, BD-Pharmingen, Oxford, UK). After washing, the primary antibody was visualised with Alexa Fluor-555 goat anti-rabbit IgG (Alexa) and nuclei with TO-PRO-3 iodide (Molecular Probes). Rad51 foci and γH2Ax foci were visualised with and quantified using a Leica TCS-SP2 confocal microscope.
Wild-type, and Brca1 and Brca2 defective ES cells were exposed to differing concentrations of KU0058684 for 48 hours. Cells were then fixed and stained for RAD51 foci as described by Tarsounas (Tarsounas M et al Oncogene. 2003 22(8): 1115-23).

MCF7-scrambled cells = experiment: Clonal survival, BRCA1 wild-type MCF7-scrambled cells; type: cell-based, human; conditions: continuous exposure 12-14 days
Text: as §1, §2

[2] = tested on: Brca1 and Brca2 wild type and mutant ES cells; experiment: FACS analysis of cell cycle arrest (DNA content, phospho-histone H3); type: cell-based, mouse
Method: For DNA content measurement, cells were fixed in 70% ethanol, incubated with Rnase A and propidium iodide (PI) and analysed with a FACSCalibur (Becton Dickinson). For phospho-Histone H3 analysis, cells were fixed in 70% ethanol, permeabilised with 0.25% triton X-100, incubated with anti-phospho-histone H3 antibody (Upstate Biotechnology) for 3 hours, and then with FITC-anti rabbit IgG (Serotec) for 30 minutes.
Cells were exposed with KU0058684 for various periods then labelled with BrdU and the proportion of cells in each phase of the cell cycle. […] To further characterise this arrest, cells were analysed for both DNA content and for phosphorylated Histone H3, an M phase marker. […]

tankyrase = conditions: at concentrations up to 1 μM
vault PARP = vault PARP (Homo sapiens, UniProt Q9UKK3); experiment: Selectivity: vault PARP inhibition; type: biochemical; conditions: at concentrations up to 1 μM
[3] = tested on: Brca1 and Brca2 deficient cells; experiment: Timed-exposure clonogenic assay, Brca1 and Brca2 deficient cells; type: cell-based, mouse
Method: For measurement of sensitivity to chemical inhibitors, cell cultures e.g. ES cells or mouse embryonic fibroblasts, in exponential growth were trypsinised and seeded at various densities in 6-well plates onto confluent monolayer of Mitomycin C (MMC) inactivated mouse embryonic fibroblasts and, where appropriate, treated with inhibitors after 18 h. For continuous exposure, cells were re-fed every 4 days with fresh medium and inhibitor. For timed exposures, inhibitor was added for the specified period then cells were washed and re-fed with fresh medium. After 10-14 days, cells were washed with PBS, fixed in methanol and stained with crystal violet. Colonies containing greater than approximately 50 cells were counted. Experiments were performed at least three times in triplicate.
Cells were exposed to different concentrations of KU0058684 for defined periods of time. The inhibitor was then removed and the effects measured using a clonogenic assay. The inhibitory effects of KU0058684 on clonal growth were apparent after a relatively short exposure time, 4 h, and were essentially complete by 24 h exposure (FIGS. 5 and 6).

VC8-BAC cells = experiment: Neutral comet assay, complemented VC8-BAC line; type: cell-based, chinese hamster; conditions: 30-hour exposure to 1 μM
Method: VC8 and VC8-BAC cells were plated 24 hours prior to treatment with 1 μM KU0058684 for 30 hours. All further work was carried out in the dark. Cells were washed with and scraped into PBS prior to Comet analysis as described (Lemay and Wood, 1999). Cells suspended in LMP agarose (0.5% in PBS) were spread onto Comet slides (Trevigen, Gaithersburg) and placed at 4 C until set, prior to lysis for 45 mins in 2.5M NaCl, 100 mM EDTA, 10 mM Tris Base, 1% sodium lauryl sarcosinate, 0.01% Triton X-100. Slides were transferred to TBE for 5 mins prior to electrophoresis at 18V for 15 mins. Slides were then fixed in 100% ethanol for 5 mins and air dried before the addition of SYBR green dye and visualisation by epifluorescence using fluorescien filters (Nikon). Comets were analysed using the Comet software module of the Lucia G imaging package as supplied by Nikon. 50 comets per data point were examined for each of three independent experiments and the mean tail moment calculated.

[4] = tested on: wild-type, Fanca−/−, Fancc−/− and Fanca−/−c−/− cells; experiment: RAD51 focus formation in wild-type and FA fibroblasts; type: cell-based, mouse; conditions: 48 hours exposure
Method: The percentage of cells with >5 foci per cell was quantified.
as §3

[5] = timed exposure, inhibitor then removed

Chain of vault PARP (Q9UKK3 whole entry): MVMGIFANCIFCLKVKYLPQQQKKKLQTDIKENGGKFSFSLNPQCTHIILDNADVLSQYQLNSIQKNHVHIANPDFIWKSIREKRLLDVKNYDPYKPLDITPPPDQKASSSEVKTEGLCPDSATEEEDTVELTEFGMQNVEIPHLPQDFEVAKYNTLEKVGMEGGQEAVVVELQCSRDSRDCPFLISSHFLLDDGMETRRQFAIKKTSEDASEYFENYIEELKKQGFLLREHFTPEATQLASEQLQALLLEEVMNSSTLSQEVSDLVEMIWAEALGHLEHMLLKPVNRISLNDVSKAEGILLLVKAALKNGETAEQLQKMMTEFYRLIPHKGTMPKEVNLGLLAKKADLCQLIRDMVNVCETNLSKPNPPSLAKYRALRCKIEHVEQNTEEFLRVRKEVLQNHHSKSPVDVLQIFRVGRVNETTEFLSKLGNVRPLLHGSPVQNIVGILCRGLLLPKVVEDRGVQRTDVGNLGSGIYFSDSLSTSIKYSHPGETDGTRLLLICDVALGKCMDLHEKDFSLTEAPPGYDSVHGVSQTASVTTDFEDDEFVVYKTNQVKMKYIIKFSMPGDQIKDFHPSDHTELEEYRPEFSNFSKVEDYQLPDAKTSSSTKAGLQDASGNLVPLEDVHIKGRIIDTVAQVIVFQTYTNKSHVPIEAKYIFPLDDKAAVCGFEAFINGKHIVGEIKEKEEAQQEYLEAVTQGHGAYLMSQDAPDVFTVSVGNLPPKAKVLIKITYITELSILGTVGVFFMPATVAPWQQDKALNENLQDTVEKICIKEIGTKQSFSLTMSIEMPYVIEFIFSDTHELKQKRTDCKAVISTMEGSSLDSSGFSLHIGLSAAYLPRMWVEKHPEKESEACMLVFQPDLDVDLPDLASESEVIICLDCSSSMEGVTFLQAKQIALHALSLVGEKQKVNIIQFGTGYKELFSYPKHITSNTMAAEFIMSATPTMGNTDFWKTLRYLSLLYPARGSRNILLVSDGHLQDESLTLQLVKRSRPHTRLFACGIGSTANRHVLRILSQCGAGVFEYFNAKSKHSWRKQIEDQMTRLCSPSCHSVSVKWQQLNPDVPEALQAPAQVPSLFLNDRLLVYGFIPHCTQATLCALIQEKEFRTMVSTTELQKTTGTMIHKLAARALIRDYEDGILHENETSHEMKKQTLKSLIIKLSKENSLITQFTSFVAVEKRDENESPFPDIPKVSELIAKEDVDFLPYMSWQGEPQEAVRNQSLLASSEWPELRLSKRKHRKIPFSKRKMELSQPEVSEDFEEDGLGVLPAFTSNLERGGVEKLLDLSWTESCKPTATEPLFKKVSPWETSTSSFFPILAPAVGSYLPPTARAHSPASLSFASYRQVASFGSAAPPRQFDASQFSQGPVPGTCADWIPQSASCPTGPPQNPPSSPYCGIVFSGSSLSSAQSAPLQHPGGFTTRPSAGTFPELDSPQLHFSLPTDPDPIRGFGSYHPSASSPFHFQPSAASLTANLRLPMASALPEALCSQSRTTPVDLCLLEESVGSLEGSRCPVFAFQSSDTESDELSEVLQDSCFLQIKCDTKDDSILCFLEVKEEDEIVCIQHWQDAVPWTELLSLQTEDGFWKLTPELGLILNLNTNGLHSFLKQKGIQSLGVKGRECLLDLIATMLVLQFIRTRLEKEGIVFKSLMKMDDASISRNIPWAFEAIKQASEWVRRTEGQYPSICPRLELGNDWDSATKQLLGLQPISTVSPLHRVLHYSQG

SMILES: O=C1CCC(=O)N1c1cc(Cc2n[nH]c(=O)c3ccccc23)ccc1F [KU0058684]
- IC50 [1]: 1000 nM
- sensitivity of MCF7-3.23 cells compared with MCF7-scrambled cells (MCF7-3.23 cells): significantly more sensitive
- sensitivity (clonal survival) (MCF7-3.23 cells; MCF7-3.23, continuous exposure 12-14 days): both cell lines were sensitive
- Rad51 foci formation (wild-type ES cells): caused Rad51 foci formation in a dose-dependent fashion
- sensitivity (clonal survival) (MCF7-scrambled cells): both cell lines were sensitive
- cell cycle arrest (DNA content, FACS) [2]: profound arrest of cells with a tetraploid DNA content
- phase of arrest (phospho-histone H3 labelling) [2]: majority of cells were arrested in G2
- inhibition of tankyrase (tankyrase): do not inhibit
- inhibition of vault PARP (vault PARP): do not inhibit
- reversibility of the effects of PARP inhibition ([3]; short exposure followed by 10-14 days in the absence of inhibitor): irreversible
- exposure time after which inhibitory effects on clonal growth were apparent [3, 5]: 4 h
- exposure time by which inhibitory effects on clonal growth were essentially complete [3, 5]: ≤ 24 h
- increase in tail moment (VC8-BAC cells): no significant increase
- RAD51 focus formation [4]: Induction of RAD51 focus formation
